In ChEMBL document CHEMBL4152237, “Identification of novel β-lactams and pyrrolidinone derivatives as selective Histamine-3 receptor (H3R) modulators as possible anti-obesity agents” (Eur J Med Chem, 2018) one finds inhibition and Activity data, which are given here for 47 molecules.

The target in test [1] is Histamine H3 receptor (Homo sapiens, UniProt Q9Y5N1). The experiment in a line: Agonist activity at human H3R expressed in HEK293 cells harboring glosensor-22F cAMP plasmid DNA assessed as inhibition of forskolin-stimulated cAMP accumulation at 10 uM preincubated with cells followed by forskolin addition measured after 10 mins by luminescence assay relative to control. It is filed as functional, cell-based.

In test [2] the target is T1, 5-hydroxytryptamine receptor 2C (Homo sapiens) (UniProt P28335).
T1 sequence (whole entry): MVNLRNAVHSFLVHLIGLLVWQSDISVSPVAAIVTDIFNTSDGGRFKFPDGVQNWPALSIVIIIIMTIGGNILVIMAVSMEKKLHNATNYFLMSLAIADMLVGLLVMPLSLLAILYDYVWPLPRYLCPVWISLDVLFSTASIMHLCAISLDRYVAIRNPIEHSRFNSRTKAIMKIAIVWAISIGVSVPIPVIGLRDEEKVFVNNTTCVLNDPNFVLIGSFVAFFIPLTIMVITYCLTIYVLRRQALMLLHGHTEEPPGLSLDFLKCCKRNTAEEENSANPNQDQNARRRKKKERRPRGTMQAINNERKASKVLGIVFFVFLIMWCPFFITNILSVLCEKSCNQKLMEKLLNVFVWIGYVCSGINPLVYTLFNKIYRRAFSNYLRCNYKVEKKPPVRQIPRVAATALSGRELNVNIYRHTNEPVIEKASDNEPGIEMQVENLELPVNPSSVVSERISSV
The experiment in a line: Agonist activity at human 5-HT2C expressed in HEK293 cells harboring luc2P/NFAT-RE plasmid at 10 uM after 6 to 8 hrs by luciferase reporter gene assay. It is filed as functional, cell-based. Background: Reporter assays use an easily measured gene product as a stand-in for the process of interest.

The source made the active and inactive calls. No rule for the calls is given here.

Chain of Histamine H3 receptor (Q9Y5N1 whole entry): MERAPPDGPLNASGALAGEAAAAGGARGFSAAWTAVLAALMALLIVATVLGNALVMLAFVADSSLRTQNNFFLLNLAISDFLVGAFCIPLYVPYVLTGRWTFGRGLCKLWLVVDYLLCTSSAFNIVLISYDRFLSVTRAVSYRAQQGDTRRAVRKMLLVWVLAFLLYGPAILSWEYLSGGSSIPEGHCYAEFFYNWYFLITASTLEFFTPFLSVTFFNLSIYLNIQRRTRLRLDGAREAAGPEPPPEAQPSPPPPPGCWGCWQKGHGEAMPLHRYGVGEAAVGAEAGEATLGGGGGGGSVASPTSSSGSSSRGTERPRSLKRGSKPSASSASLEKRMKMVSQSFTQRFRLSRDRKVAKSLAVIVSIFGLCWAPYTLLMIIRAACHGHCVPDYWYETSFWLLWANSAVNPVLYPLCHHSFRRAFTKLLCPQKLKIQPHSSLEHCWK

For `Cc1ccc([C@@H]2C(=O)N[C@@H]3CC(=O)C=C[C@@]34C(c3ccccc3)=CC(=O)N24)cc1`, in test [1], the inhibition result is “inactive”. For the same molecule, the result in test [2] was inactive.

For the molecule `O=C1C=C[C@]23C(c4ccccc4)=CC(=O)N2[C@H](c2ccc(Br)cc2)C(=O)N[C@@H]3C1`, the inhibition entry in test [1] is “inactive”. Besides, the outcome in test [2] was inactive.

On to `COc1cc(N2C(=O)C(=Cc3ccccc3)C2(C(=O)NC(C)(C)C)c2ccc(Br)cc2)cc(OC)c1OC` (configuration not stated), for which the inhibition entry in test [1] was “inactive”. In addition, the result in test [2] was inactive.

Regarding `N#Cc1ccc([C@@H]2C(=O)N[C@@H]3CC(=O)C=C[C@@]34C(c3ccccc3)=CC(=O)N24)cc1`, the result in test [2] was inactive.

Regarding `CN(C)c1ccc([C@@H]2C(=O)N[C@@H]3CC(=O)C=C[C@@]34C(c3ccccc3)=CC(=O)N24)cc1`, the inhibition entry in test [1] was “inactive”. In addition, the result in test [2] was inactive.

Turning to `COc1cc(N2C(=O)C(=Cc3ccccc3)C2(C(=O)NC(C)(C)C)c2cc(C)cc(C)c2)cc(OC)c1OC` (configuration not stated), in test [1], the inhibition result is “inactive”. Further, the result in test [2] was inactive.

As for `CC(C)(C)NC(=O)C(c1cccc(Cl)c1)N1C(=O)C(I)=C(c2ccccc2)C12C=CC(=O)C=C2` (configuration not stated), the inhibition entry in test [1] is “inactive”. The outcome in test [2] was inactive.

Take `COc1ccc(NC2(c3cccc(Cl)c3)C(=O)N(C(C)(C)C)C(=O)/C2=C/c2ccccc2)cc1` (configuration not stated): the inhibition result in test [1] is “inactive”. Besides, the outcome in test [2] was inactive.

For `COC1=CC2(C=C(OC)C1=O)C(c1ccccc1)=C(I)C(=O)N2C(C(=O)NC1CCCCC1)c1cccc([N+](=O)[O-])c1` (configuration not stated), the inhibition entry in test [1] is “inactive”. Further, the result in test [2] was inactive.

For `COc1ccc(N2C(=O)/C(=C\c3ccccc3)C2(C(=O)NC(C)(C)C)c2cc(C)cc(C)c2)cc1` (configuration not stated), the inhibition result in test [1] was “inactive”. For the same molecule, the outcome in test [2] was inactive.

Regarding `COc1ccc(C2(Nc3cc(OC)c(OC)c(OC)c3)C(=O)N(C(C)(C)C)C(=O)/C2=C/c2ccccc2)cc1` (configuration not stated), the inhibition result in test [1] was “inactive”. In addition, in test [2], the outcome was inactive.

`COc1ccc(N2C(=O)C(=Cc3ccccc3)C2(C(=O)NC(C)(C)C)c2ccccc2)cc1` (configuration not stated): the inhibition result in test [1] was “inactive”. Besides, the result in test [2] was inactive.

Take `COc1ccc(N2C(=O)C(=Cc3ccccc3)C2(C(=O)NC(C)(C)C)c2ccc(OC)cc2)cc1` (configuration not stated): the inhibition result in test [1] is “inactive”. Moreover, the outcome in test [2] was inactive.

As to `O=C1C=CC2(C=C1)C(c1ccccc1)=C(I)C(=O)N2C(C(=O)NC1CCCCC1)c1cccc([N+](=O)[O-])c1` (configuration not stated), the inhibition entry in test [1] is “inactive”. Besides, the outcome in test [2] was inactive.

In the case of `O=C1C=C[C@]23C(c4ccccc4)=CC(=O)N2[C@H](c2ccc(Cl)c(F)c2)C(=O)N[C@@H]3C1`, in test [1], the inhibition result was “inactive”. In test [2], the outcome was inactive.

`COc1ccc(C(C(=O)NC2CCCCC2)N2C(=O)C(I)=C(c3ccccc3)C23C=CC(=O)C=C3)cc1` (configuration not stated): the inhibition entry in test [1] was “inactive”. Further, the result in test [2] was inactive.

For the molecule `O=C1C=C[C@]23C(c4ccccc4)=CC(=O)N2[C@H](c2ccc(OC(F)(F)F)cc2)C(=O)N[C@@H]3C1`, in test [1], the inhibition result is “inactive”. The outcome in test [2] was inactive.

As for `COc1ccc(NC2(c3cc(C)cc(C)c3)C(=O)N(C(C)(C)C)C(=O)/C2=C/c2ccccc2)cc1` (configuration not stated), the inhibition entry in test [1] is “inactive”. Besides, the outcome in test [2] was inactive.

In the case of `COc1ccc(NC2(c3cc(F)c(F)c(F)c3)C(=O)N(C(C)(C)C)C(=O)/C2=C/c2ccccc2)cc1` (configuration not stated), the inhibition result in test [1] is “inactive”. Also, in test [2], the outcome was inactive.

Regarding `O=C1C=CC2(C=C1)C(c1ccccc1)=C(I)C(=O)N2C(C(=O)NC1CCCCC1)c1ccccc1Br` (configuration not stated), in test [1], the inhibition entry was “inactive”. Moreover, the result in test [2] was inactive.

For `COc1ccc([C@@H]2C(=O)N[C@@H]3CC(=O)C=C[C@@]34C(c3ccccc3)=CC(=O)N24)cc1`, the inhibition result in test [1] was “inactive”. In addition, in test [2], the outcome was inactive.

Consider `COc1ccc(NC2(c3ccccc3)C(=O)N(C3CCCCC3)C(=O)/C2=C/c2ccccc2)cc1OC` (configuration not stated), for which, in test [1], the inhibition entry was “inactive”. In addition, in test [2], the result was inactive.

In the case of `COc1ccc(C(C(=O)NC(C)(C)C)N2C(=O)C(I)=C(c3ccccc3)C23C=CC(=O)C=C3)cc1` (configuration not stated), the inhibition result in test [1] was “inactive”. The outcome in test [2] was inactive.

On to `COC1=CC2(C=C(OC)C1=O)C(c1ccccc1)=C(I)C(=O)N2C(C(=O)NC1CCCCC1)c1ccc(OC)c(OC)c1OC` (configuration not stated), for which the inhibition entry in test [1] is “inactive”. Besides, the outcome in test [2] was inactive.

Turning to `O=C1C=C[C@]23C(c4ccccc4)=CC(=O)N2[C@H](c2cccc(Cl)c2)C(=O)N[C@@H]3C1`, the inhibition entry in test [1] was “inactive”. Moreover, the outcome in test [2] was inactive.

As for `COc1ccc(NC2(c3ccc(Cl)c(F)c3)C(=O)N(C3CCCCC3)C(=O)/C2=C/c2ccccc2)cc1OC` (configuration not stated), in test [1], the inhibition entry was “inactive”. The result in test [2] was inactive.

For the molecule `CC(C)(C)NC(=O)C(c1ccc(C#N)cc1)N1C(=O)C(I)=C(c2ccccc2)C12C=CC(=O)C=C2` (configuration not stated), in test [1], the inhibition result was “inactive”. In addition, the outcome in test [2] was inactive.

Take `COC1=CC2(C=C(OC)C1=O)C(c1ccccc1)=C(c1cccc3c1OCO3)C(=O)N2C(C(=O)NC1CCCCC1)c1cc(OC)c(OC)c(OC)c1` (configuration not stated): the inhibition entry in test [1] is “inactive”. Besides, the outcome in test [2] was inactive.

Take `CC(C)(C)NC(=O)C(c1ccccc1[N+](=O)O)N1C(=O)C(I)=C(c2ccccc2)C12C=CC(=O)C=C2` (configuration not stated): in test [1], the inhibition entry was “inactive”. In test [2], the result was inactive.

For `COc1ccc(C2=C(c3ccccc3)C3(C=CC(=O)C=C3)N(C(C(=O)NC(C)(C)C)c3ccccc3C)C2=O)cc1` (configuration not stated), the inhibition entry in test [1] is “inactive”. Besides, the result in test [2] was inactive.

In the case of `COc1ccc(N2C(=O)/C(=C\c3ccccc3)C2(C(=O)NC(C)(C)C)c2cccc(Cl)c2)cc1` (configuration not stated), the inhibition entry in test [1] was “inactive”. The outcome in test [2] was inactive.

`O=C1C=CC2(C=C1)C(c1ccccc1)=C(I)C(=O)N2C(C(=O)NC1CCCCC1)c1ccccc1[N+](=O)[O-]` (configuration not stated): the inhibition result in test [1] was “inactive”. Besides, the outcome in test [2] was inactive.

Consider `COc1cc(C(C(=O)NC2CCCCC2)N2C(=O)C(I)=C(c3ccccc3)C23C=CC(=O)C=C3)cc(OC)c1OC` (configuration not stated), for which the inhibition result in test [1] is “inactive”. In test [2], the outcome was inactive.

Regarding `COc1ccc(N2C(=O)/C(=C\c3ccccc3)C2(C(=O)NC(C)(C)C)c2ccc(F)cc2)cc1` (configuration not stated), in test [1], the inhibition entry is “inactive”. The outcome in test [2] was inactive.

On to `O=C1C=C[C@]23C(c4ccccc4)=CC(=O)N2[C@H](c2ccc(Cl)cc2)C(=O)N[C@@H]3C1`, for which the inhibition result in test [1] was “inactive”. The result in test [2] was inactive.

In the case of `COc1ccc(NC2(c3ccc(Cl)c(F)c3)C(=O)N(C(C)(C)C)C(=O)/C2=C/c2ccccc2)cc1` (configuration not stated), the inhibition result in test [1] was “inactive”. The result in test [2] was inactive.

Consider `O=C1C=C[C@]23C(c4ccccc4)=CC(=O)N2[C@H](c2ccccc2)C(=O)N[C@@H]3C1`, for which the inhibition entry in test [1] is “inactive”. Also, the outcome in test [2] was inactive.

Consider `COc1ccc(C(C(=O)NC(C)(C)C)N2C(=O)C(I)=C(c3ccccc3)C23C=CC(=O)C=C3)cc1C` (configuration not stated), for which the inhibition entry in test [1] was “inactive”. In addition, the outcome in test [2] was inactive.

Turning to `COc1ccccc1[C@@H]1C(=O)N[C@@H]2CC(=O)C=C[C@@]23C(c2ccccc2)=CC(=O)N13`, in test [1], the inhibition entry is “inactive”. Besides, in test [2], the outcome was inactive.

As for `Cc1ccc(C(C(=O)NC(C)(C)C)N2C(=O)C(I)=C(c3ccccc3)C23C=CC(=O)C=C3)cc1` (configuration not stated), the inhibition entry in test [1] was “inactive”. The result in test [2] was inactive.

Take `O=C1C=C[C@]23C(c4ccccc4)=CC(=O)N2[C@H](c2cccc(Br)c2)C(=O)N[C@@H]3C1`: in test [1], the inhibition result is “inactive”. The result in test [2] was inactive.

For `COc1cc(NC2(c3cc(F)cc(F)c3)C(=O)N(C3CCCCC3)C(=O)/C2=C/c2ccccc2)cc(OC)c1OC` (configuration not stated), the inhibition entry in test [1] was “inactive”. The result in test [2] was inactive.

As for `Cc1cc(C(C(=O)NC(C)(C)C)N2C(=O)C(I)=C(c3ccccc3)C23C=CC(=O)C=C3)cc(C)c1O` (configuration not stated), the inhibition result in test [1] is “inactive”. Also, the outcome in test [2] was inactive.

As for `COC1=CC2(C=C(OC)C1=O)C(c1ccccc1)=C(c1ccc(OC)cc1)C(=O)N2C(C(=O)NC1CCCCC1)c1cc(OC)c(OC)c(OC)c1` (configuration not stated), in test [1], the inhibition result is “inactive”. Besides, the result in test [2] was inactive.

Regarding `COc1ccc(NC2(c3cc(F)cc(F)c3)C(=O)N(C(C)(C)C)C(=O)/C2=C/c2ccccc2)cc1` (configuration not stated), the inhibition entry in test [1] is “inactive”. Further, the outcome in test [2] was inactive.

As for `COc1ccc(C(C(=O)NC2CCCCC2)N2C(=O)C=C(c3ccccc3)C23C=CC(=O)C=C3)cc1C` (configuration not stated), the inhibition entry in test [1] is “inactive”. Besides, the result in test [2] was inactive.

Take `COc1ccc(N2C(=O)/C(=C\c3ccccc3)C2(C(=O)NC(C)(C)C)c2cc(F)cc(F)c2)cc1` (configuration not stated): the result in test [2] was inactive.
